Patent publication US9238055B2, “Peptide bone forming peptide 4 for promoting osteogenesis or vascularization and use thereof” (Chonnam National University Hospital, priority 2011, dated 2016)
Where no end group is shown, it is not given here.

Tested on: mesenchymal stem cells
Assay: MTT assay for cytotoxicity
Type: cell-based, mouse
Conditions: at concentrations effective for promoting osteogenic differentiation; FIG. 3
Method: At concentrations effective for calcium deposition, BFP 4 was analyzed for cytotoxicity. In this context, MTT ((3-(4,5-Dimethylthiazol-2-yl)-2,5-diphenyltetrazolium bromide, a yellow tetrazole) assay was performed using an MTT Cell Proliferation Assay Kit (Cayman Chemical) according to the instructions of the manufacturer.

With “FFKATEVHFRSIRST [BFP 4, Phe-Phe-Lys-Ala-Thr-Glu-Val-His-Phe-Arg-Ser-Ile-Arg-Ser-Thr]” the “Cytotoxicity (MTT)” value was “no cytotoxicity was detected”.
